# Legend:
# [1] = biological target: T1, Mushroom tyrosinase (mTyr) (Agaricus bisporus, UniProt C7FF04); assay: Fluorescence quenching of mTyr; assay type: binding
# T1 construct: purchased Sigma-Aldrich
# From the text: Fluorescence quenching can be classified into static quenching and dynamic quenching. Static quenching occurs when quenching agents bind to fluorescent substances, forming complexes that result in quenching. Dynamic quenching, on the other hand, primarily arises from thermal motion and molecular collisions. The plot of F0/F against the concentration of 6′-O-caffeoylarbutin yielded a straight line with a good linear relationship (R^2 = 0.9802). […] Typically, the threshold value for the maximum collisional quenching rate constant between small molecular quenchers and large biomolecules is 2.0 × 10^10 L·(mol·s)^−1. If the calculated quenching rate constant is below this threshold, it indicates a dynamic quenching mechanism. Conversely, if the quenching rate constant exceeds this threshold, the quenching process may involve static quenching.
# In the static quenching process, the relationship between fluorescence intensity and quencher concentration can be described by Equation (1). lg[(F0 − F)/F] = lgKa + nlg[Q](1) where F0 and F represent relative fluorescence intensities of the solution without and with the quencher, respectively. Ka represents the apparent binding constant between the enzyme and the quencher, n represents the number of binding sites on each biomacromolecule for the quencher, and [Q] denotes the concentration of the quencher. In this study, a double-logarithmic linear regression analysis of lg[(F0 − F)/F] against lg[Q] was conducted to evaluate the interaction between 6′-O-caffeoylarbutin and mTyr. Figure S5C illustrates the resulting regression line, which provided a slope and intercept for the calculation of Ka and n. The obtained values were determined as (10.79 ± 0.82) × 10^4 L∙mol^−1 and 0.79 ± 0.06, respectively. These findings indicate the formation of a stable complex between 6′-O-caffeoylarbutin and mTyr, involving a single binding site.
# The fluorescence quenching role of 6′-O-caffeoylarbutin on mTyr was investigated using a RF-6000 fluorescence spectrophotometer (Shimadzu, Kyoto, Japan) with a xenon flash lamp as a light source, according to the literature with minor alterations. The excitation wavelength was 280 nm, with a scanning wavelength ranging from 290 to 500 nm at 37 °C. The excitation and emission bandwidths were 2.5 nm and 5.0 nm, respectively. A 3 mL mixture containing 2.0 mL of 31.25 U·mL^−1 mTyr solution, 0.5 mL of 6′-O-caffeoylarbutin solution (with 3% dimethyl sulfoxide) at concentrations from 0 to 100 μM, and 0.5 mL of PBS was used to collect the fluorescence intensity curves. The PBS served as the corresponding blank to correct the fluorescence intensities. The fluorescence quenching mechanism between mTyr and 6′-O-caffeoylarbutin was described using the Stern-Volmer Equation (2). (2) F0/F=1+KSVQ=1+Kqτ0[Q] where KSV is the Stern-Volmer quenching constant, [Q] represents the concentration of 6′-O-caffeoylarbutin, Kq is bimolecular quenching rate constant, and τ0 denotes the average lifetime of the fluorescence molecules in the absence of 6′-O-caffeoylarbutin (value is 10^−8 s).
# ICR mice = assay: Acute oral toxicity, 14 days; assay type: in vivo; settings: for Death rate / Death toll (♀/♂): 20 mice; for Toxic Symptoms (♀/♂) Perianal Uncleanliness / Toxic Symptoms (♀/♂) Prone State / Toxic Symptoms (♀/♂) Reduced Activities / Toxic Symptoms (♀/♂) Shortness of Breath: n = 20 mice
# Protocol: I. Animals. […] Male and female mice were raised separately in sterile PC transparent cages in the room with a 12 h light-dark cycle. The animal procedures followed the guidelines of the National Institute of Health Guide for the Care and Use of Laboratory Animals and were approved by the Institutional Animal Care and Use Committee (IACUC) of Yunnan Institute of Materia Medica.
# II. Acute oral_toxicity. […] In this experiment, a 5% sodium carboxymethyl cellulose solution (5% CMC-Na) was chosen as the Vehicle and the solvent for 6′-O-caffeoylarbutin. […] Each mouse in the Vehicle group received an administration of 40 mL∙kg-1 of 5% CMC-Na. The treatment groups were orally administrated 6′-O-caffeoylarbutin twice within a 24_h period, with an interval of approximately 3.5–4.0 h, by dissolving in 5% CMC-Na at three different concentrations. Following administration, all animals in each group were closely monitored for about 2–5 h to observe any physical changes, monitor body weight, and record the death rate. The surviving mice were observed and monitored for an additional 14 days, with their body weight recorded on the 1st, 3rd, 7th, and 14th days. Animals that died during the experimental period or those that survived until the conclusion of the toxicity test were subjected to necropsy, and their organs were histopathologically observed and analyzed. All studies were conducted in accordance with the requirements of Good Laboratory Practice.
# [2] = biological target: T1, Mushroom tyrosinase (mTyr); settings: substrate L-DOPA; previous experiments; Liu et al., 2023; read-out: IC50, diphenolase activity of mTyr; cited from earlier work
# T1 sequence (C7FF04 1-392): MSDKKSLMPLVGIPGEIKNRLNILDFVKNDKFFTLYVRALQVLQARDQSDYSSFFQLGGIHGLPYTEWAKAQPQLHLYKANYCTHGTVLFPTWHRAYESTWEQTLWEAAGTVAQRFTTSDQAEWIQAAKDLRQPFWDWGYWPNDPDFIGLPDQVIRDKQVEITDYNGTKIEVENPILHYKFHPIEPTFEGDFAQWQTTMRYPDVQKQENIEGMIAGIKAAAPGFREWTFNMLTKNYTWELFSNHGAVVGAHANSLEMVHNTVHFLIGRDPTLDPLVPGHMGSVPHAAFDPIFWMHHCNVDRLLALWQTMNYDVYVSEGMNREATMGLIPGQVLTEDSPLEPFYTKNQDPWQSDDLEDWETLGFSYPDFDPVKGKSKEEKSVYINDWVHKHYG
structure (smiles),measurement,setting,value
O=C(C=Cc1ccc(O)c(O)c1)OCC1OC(Oc2ccc(O)cc2)C(O)C(O)C1O (stereo not shown) [6′-O-caffeoylarbutin],reduction of the peak of the fluorescence emission spectrum of mTyr,[1]; 25 μM,37.18%
same,decrease in the fluorescence emission spectrum of mTyr,[1]; 100 μM,12.57%
same,quenching rate constant Kq,"[1]; Stern-Volmer, 37 °C",4.11e+12 L·mol/s
same,apparent binding constant Ka,[1]; double-logarithmic regression,108000 L/mol
same,number of binding sites n,[1]; double-logarithmic regression,0.79 ± 0.06
same,Death rate,"ICR mice; CA-1, 28056 mg·kg-1 oral",25%
same,Death toll (♀/♂),"ICR mice; CA-1, 28056 mg·kg-1 oral",3/2
same,Toxic Symptoms (♀/♂) Perianal Uncleanliness,"ICR mice; CA-1, 28,056 mg·kg^−1 oral",0
same,Toxic Symptoms (♀/♂) Prone State,"ICR mice; CA-1, 28,056 mg·kg^−1 oral",2 (0/2)
same,Toxic Symptoms (♀/♂) Reduced Activities,"ICR mice; CA-1, 28,056 mg·kg^−1 oral",8 (2/6)
same,Toxic Symptoms (♀/♂) Shortness of Breath,"ICR mice; CA-1, 28,056 mg·kg^−1 oral",4 (2/2)
same,Body weight gain,"ICR mice; CA-1, Female mice",2.22 ± 0.62 g
same,"body weight, 1st day after the delivery","ICR mice; CA-1, Female mice",22.26±0.97
same,"body weight, 3rd day after the delivery","ICR mice; CA-1, Female mice",24.28±1.18
same,"body weight, 7th day after the delivery","ICR mice; CA-1, Female mice",24.88±1.09
same,"body weight, 14th day after the delivery","ICR mice; CA-1, Female mice",27.10±1.39
same,Body weight gain,"ICR mice; CA-1, Male mice",2.65 ± 1.01 g
same,"body weight, 1st day after the delivery","ICR mice; CA-1, Male mice",30.75±2.11
same,"body weight, 3rd day after the delivery","ICR mice; CA-1, Male mice",33.62±2.35
same,"body weight, 7th day after the delivery","ICR mice; CA-1, Male mice",35.25±2.53
same,"body weight, 14th day after the delivery","ICR mice; CA-1, Male mice",37.90±3.13
same,Death rate,"ICR mice; CA-2, 23848 mg·kg-1 oral",5%
same,Death toll (♀/♂),"ICR mice; CA-2, 23848 mg·kg-1 oral",0/1
same,Toxic Symptoms (♀/♂) Perianal Uncleanliness,"ICR mice; CA-2, 23,848 mg·kg^−1 oral",0
same,Toxic Symptoms (♀/♂) Prone State,"ICR mice; CA-2, 23,848 mg·kg^−1 oral",0
same,Toxic Symptoms (♀/♂) Reduced Activities,"ICR mice; CA-2, 23,848 mg·kg^−1 oral",1 (0/1)
same,Toxic Symptoms (♀/♂) Shortness of Breath,"ICR mice; CA-2, 23,848 mg·kg^−1 oral",0
same,Body weight gain,"ICR mice; CA-2, Female mice",1.88 ± 1.17 g
same,"body weight, 1st day after the delivery","ICR mice; CA-2, Female mice",21.58±1.21
same,"body weight, 7th day after the delivery","ICR mice; CA-2, Female mice",23.59±0.50
same,"body weight, 14th day after the delivery","ICR mice; CA-2, Female mice",25.47±1.36
same,Body weight gain,"ICR mice; CA-2, Male mice",3.38 ± 1.23 g
same,"body weight, 1st day after the delivery","ICR mice; CA-2, Male mice",30.91±0.87
same,"body weight, 3rd day after the delivery","ICR mice; CA-2, Male mice",33.07±1.24
same,"body weight, 7th day after the delivery","ICR mice; CA-2, Male mice",33.88±1.71
same,"body weight, 14th day after the delivery","ICR mice; CA-2, Male mice",37.26±2.19
same,Death toll (♀/♂),"ICR mice; CA-3, 20272 mg·kg-1 oral",0/0
same,Toxic Symptoms (♀/♂) Perianal Uncleanliness,"ICR mice; CA-3, 20,272 mg·kg^−1 oral",0
same,Toxic Symptoms (♀/♂) Prone State,"ICR mice; CA-3, 20,272 mg·kg^−1 oral",0
same,Toxic Symptoms (♀/♂) Reduced Activities,"ICR mice; CA-3, 20,272 mg·kg^−1 oral",0
same,Toxic Symptoms (♀/♂) Shortness of Breath,"ICR mice; CA-3, 20,272 mg·kg^−1 oral",0
same,Body weight gain,"ICR mice; CA-3, Female mice",2.41 ± 1.51 g
same,"body weight, 1st day after the delivery","ICR mice; CA-3, Female mice",22.21±0.87
same,"body weight, 3rd day after the delivery","ICR mice; CA-3, Female mice",23.36±0.66
same,"body weight, 14th day after the delivery","ICR mice; CA-3, Female mice",26.62±1.54
same,Body weight gain,"ICR mice; CA-3, Male mice",1.45 ± 3.11 g
same,"body weight, 1st day after the delivery","ICR mice; CA-3, Male mice",30.89±1.57
same,"body weight, 3rd day after the delivery","ICR mice; CA-3, Male mice",33.88±1.41
same,"body weight, 7th day after the delivery","ICR mice; CA-3, Male mice",35.33±1.44
same,"body weight, 14th day after the delivery","ICR mice; CA-3, Male mice",36.78±3.53
same,deaths,"ICR mice; mouse, in vivo",no deaths
same,IC50,[2],95.2 µM
